Measured values from patent US6316020A, “Pharmaceutical formulations” (priority 2000, dated 2001).

Assay: Solubility assessment as a function of HPβCD concentration
Type: physicochemical
Details: water
Procedure: Solubility studies were performed by the addition of a known mass of 5(6)-methoxy-2-[[(4-methoxy-3,5-dimethyl-2-pyridinyl)-methyl]sulfinyl]-1H- benzimidazole and/or HP CD to a given volume of solvent system. Solubilities were determined by observation, as the maximum concentration at which 5(6)-methoxy-2-[[(4-methoxy-3,5-dimethyl-2-pyridinyl)-methyl]sulfinyl]-1H- benzimidazole completely dissolved. Additionally, concentrations of 5(6)-methoxy-2-[[(4-methoxy-3,5-dimethyl-2-pyridinyl)-methyl]sulfinyl]-1H- benzimidazole and HP C D at set molar ratios were solubilized in systems of high pH (adjusted as high as 12.2, with 1N NaOH), the pH was adjusted (using 2N HCl) in a stepwise downward manner until precipitation occurred.
The solubility of 5(6)-methoxy-2-[[(4-methoxy-3,5-dimethyl-2-pyridinyl)-methyl]sulfinyl]-1H- benzimidazole was assessed as a function of HPβCD concentration in water.
The procedure according to Example 86 was repeated except that water with a borate buffer (pH of 8) was employed.
The procedure according to Example 86 was repeated except that water with a phosphate buffer (pH of 11) was employed.

## COc1ccc2[nH]c([S+]([O-])Cc3ncc(C)c(OC)c3C)nc2c1 (centres unmarked) [5(6)-methoxy-2-[[(4-methoxy-3,5-dimethyl-2-pyridinyl)-methyl]sulfinyl]-1H-benzimidazole]
  Solubility as a function of HPβCD concentration: increase linearly as a function of HPβCD concentration
  influence of pH on solubility: influenced by solution pH
